{"source": "paper PMC5056392", "about": "“CD4-mimetic sulfopeptide conjugates display sub-nanomolar anti-HIV-1 activity and protect macaques against a SHIV162P3 vaginal challenge” (Scientific Reports, 2016)", "key": {"SHIV162P3 [1]": {"tested_on": "SHIV162P3", "conditions": "TZM-bl cells; cited from earlier work", "source_text": "(§1) Similarly, HEC gel formulated cyanovirin was s ..."}, "SHIV": {"tested_on": "SHIV", "conditions": "cited from earlier work", "source_text": "as §1"}, "HIV-1 VI820": {"tested_on": "HIV-1 VI820", "test": "TZM-bl antiviral assay, VI820", "format": "cell-based", "conditions": "Human immunodeficiency virus 1; Table 2; A-X4R5; 10^-3 MOI, TZM-bl cells, 48 h; mean of at least 2 independent experiments, triplicates", "protocol": "(§2) The IC50 of the various mCD4-conjugates were measured in TZM-bl cells (NIH AIDS Reagent Program, Germantown, MD 20874, US). This cell line expresses high densities of CD4, CCR5 and CXCR4. It contains a luciferase reporter gene under control of HIV LTR, which will be transcribed and translated into luciferase protein, if the cells get infected with HIV and start producing Tat. Briefly, 50 μl of TZM-bl cells (1 × 10^5 cells/mL) supplemented with 30 μg/mL DEAE dextran were incubated with a 50 μl of a 10-fold serial dilution of the compounds under investigation in 96-well flat bottom plates, prior to inoculation with 50 μl of various viruses (see Tables & and 2; 50, 100 or 200 TCID50 was used depending on the virus). As a positive control, 50 μl of compound-free medium was used and as a negative control, 100 μl of medium was added to 100 μl of TZM-bl cells. All conditions were done in triplicates. The plates were incubated for 48 hours (37 °C, 5% CO2). […] Next, the luciferase activity was measured using a TriStar LB941 luminometer (Berthold Technologies GmbH & Co. KG., Bad Wildbad, Germany) and expressed in relative light units (RLU) as a percentage of positive control wells. IC50 were calculated in GraphPad Prism 5.03 using non-linear regression (GraphPad Software, San Diego, CA, USA)."}, "HIV-1 Bal": {"tested_on": "HIV-1 Bal", "test": "TZM-bl antiviral assay, Bal", "format": "cell-based", "conditions": "Human immunodeficiency virus 1, BAL; Table 2; B-R5; 10^-3 MOI, TZM-bl cells, 48 h; mean of at least 2 independent experiments, triplicates", "protocol": "as §2"}, "HIV-1 IIIB": {"tested_on": "HIV-1 IIIB", "test": "TZM-bl antiviral assay, IIIB", "format": "cell-based", "conditions": "Human immunodeficiency virus 1, IIIB; Table 2; B-X4; 10^-3 MOI, TZM-bl cells, 48 h; mean of at least 2 independent experiments, triplicates", "protocol": "as §2"}, "HIV-1 MN": {"tested_on": "HIV-1 MN", "test": "TZM-bl antiviral assay, MN", "format": "cell-based", "conditions": "Human immunodeficiency virus 1; Table 2; B-X4; 10^-3 MOI, TZM-bl cells, 48 h; mean of at least 2 independent experiments, triplicates", "protocol": "as §2"}, "HIV-1 SF162": {"tested_on": "HIV-1 SF162", "test": "TZM-bl antiviral assay, SF162", "format": "cell-based", "conditions": "Human immunodeficiency virus 1; Table 2; B-R5; 10^-3 MOI, TZM-bl cells, 48 h; mean of at least 2 independent experiments, triplicates", "protocol": "as §2"}, "SHIV162P3 [2]": {"tested_on": "SHIV162P3", "test": "TZM-bl antiviral assay, SHIV162P3", "format": "cell-based, SHIV", "conditions": "Table 2; B-R5; 10^-3 MOI, TZM-bl cells, 48 h; mean of at least 2 independent experiments, triplicates", "protocol": "as §2"}, "HIV-1 Ca10-3 (CRF01)": {"tested_on": "HIV-1 Ca10-3 (CRF01)", "test": "microbe, parasite or virus in culture", "format": "cell-based", "conditions": "Human immunodeficiency virus 1, TZM-bl, 48 h, read-out: IC50 Ca10-3 (CRF01)", "protocol": "(§3) The IC50 of the various mCD4-conjugates were measured in TZM-bl cells (NIH AIDS Reagent Program, Germantown, MD 20874, US). This cell line expresses high densities of CD4, CCR5 and CXCR4. It contains a luciferase reporter gene under control of HIV LTR, which will be transcribed and translated into luciferase protein, if the cells get infected with HIV and start producing Tat. Briefly, 50 μl of TZM-bl cells (1 × 10^5 cells/mL) supplemented with 30 μg/mL DEAE dextran were incubated with a 50 μl of a 10-fold serial dilution of the compounds under investigation in 96-well flat bottom plates, prior to inoculation with 50 μl of various viruses (see Tables & and 2; 50, 100 or 200 TCID50 was used depending on the virus). As a positive control, 50 μl of compound-free medium was used and as a negative control, 100 μl of medium was added to 100 μl of TZM-bl cells. All conditions were done in triplicates. The plates were incubated for 48 hours (37 °C, 5% CO2). Subsequently, 120 μL of supernatants were removed, 75 μl of the luciferase substrate Steadylite (Perkin Elmer, Life Sciences, Zaventem, Belgium) were added to the wells and the plates were incubated at room temperature on an orbital shaker for 10 minutes. Next, the luciferase activity was measured using a TriStar LB941 luminometer (Berthold Technologies GmbH & Co. KG., Bad Wildbad, Germany) and expressed in relative light units (RLU) as a percentage of positive control wells. IC50 were calculated in GraphPad Prism 5.03 using non-linear regression (GraphPad Software, San Diego, CA, USA)."}, "HIV-1 MP568 (CRF02)": {"tested_on": "HIV-1 MP568 (CRF02)", "test": "microbe, parasite or virus in culture", "format": "cell-based", "conditions": "Human immunodeficiency virus 1, TZM-bl, 48 h, read-out: IC50 MP568 (CRF02)", "protocol": "as §3"}, "HIV-1 VI1888 (CRF01)": {"tested_on": "HIV-1 VI1888 (CRF01)", "test": "microbe, parasite or virus in culture", "format": "cell-based", "conditions": "Human immunodeficiency virus 1, TZM-bl, 48 h, read-out: IC50 VI1888 (CRF01)", "protocol": "as §3"}, "HIV-1 VI824": {"tested_on": "HIV-1 VI824", "test": "microbe, parasite or virus in culture", "format": "cell-based", "conditions": "Human immunodeficiency virus 1, TZM-bl, 48 h, read-out: IC50 VI824", "protocol": "as §3"}, "HIV-1 p246F10": {"tested_on": "HIV-1 p246F10", "test": "microbe, parasite or virus in culture", "format": "cell-based", "conditions": "Human immunodeficiency virus 1, TZM-bl, 48 h, read-out: IC50 P246F10", "protocol": "as §3"}, "HIV-1 pREJO.c/2864 cl2": {"tested_on": "HIV-1 pREJO.c/2864 cl2", "test": "microbe, parasite or virus in culture", "format": "cell-based", "conditions": "Human immunodeficiency virus 1, TZM-bl, 48 h, read-out: IC50 pREJO.c/2864 cl2", "protocol": "as §3"}, "HIV-1 pTHRO.c/2626": {"tested_on": "HIV-1 pTHRO.c/2626", "test": "microbe, parasite or virus in culture", "format": "cell-based", "conditions": "Human immunodeficiency virus 1, TZM-bl, 48 h, read-out: IC50 pTHRO.c/2626", "protocol": "as §3"}, "HIV-1 pWITO.c/2474": {"tested_on": "HIV-1 pWITO.c/2474", "test": "microbe, parasite or virus in culture", "format": "cell-based", "conditions": "Human immunodeficiency virus 1, TZM-bl, 48 h, read-out: IC50 pWITO.c/2474", "protocol": "as §3"}, "HIV-1 pZM247Fv2": {"tested_on": "HIV-1 pZM247Fv2", "test": "microbe, parasite or virus in culture", "format": "cell-based", "conditions": "Human immunodeficiency virus 1, TZM-bl, 48 h, read-out: IC50 pZM247Fv2", "protocol": "as §3"}, "HIV-1 VI829": {"tested_on": "HIV-1 VI829", "test": "TZM-bl antiviral assay, VI829", "format": "cell-based", "conditions": "Human immunodeficiency virus 1; Table 2; C-R5; 10^-3 MOI, TZM-bl cells, 48 h; mean of at least 2 independent experiments, triplicates", "protocol": "as §2"}, "TZM-bl cells": {"tested_on": "TZM-bl cells", "test": "WST-1 cytotoxicity assay", "format": "cell-based", "conditions": "Table 2, 50% cytotoxic concentration, WST-1, 48 h", "protocol": "The water soluble tetrazolium-1 (WST-1) cell proliferation assay is based on the cleavage of the tetrazolium salt WST-1 to a formazan dye by a complex cellular mechanism. Because this bioreduction is dependent on the glycolytic production of NAD(P)H in viable cells, the amount of formazan dye formed is correlates directly to the number of viable cells in a culture. Quantification is done by measuring absorbance at 450 nm in a multiwell plate reader. TZMbl cells (10^4 cells/well) were plated in a 96-well plate and a serial dilution of compound was added. 48 h later, cell proliferation reagent was added and cell viability was measured compared to untreated control cultures. Cell viability was plotted against the compound concentration and non-linear regression analysis was performed to calculate the 50% cytotoxic concentration (CC50)."}, "[3]": {"tested_on": "HIV strains from different subtypes", "test": "TZM-bl antiviral assay, whole panel of strains", "format": "cell-based, HIV-1", "conditions": "Human immunodeficiency virus 1, TZM-bl, read-out: active concentration across the panel", "protocol": "as §2"}, "HIV-1": {"tested_on": "HIV-1", "conditions": "vaginal gel formulation (Tenofovir) or vaginal ring (Dapivirin); cited from earlier work", "protocol": "Microbicides offer distinct advantages as their use should reduce side effects associated with systemic treatment and they could prevent the establishment of viral founder populations. Up to now several molecules targeting the attachment and entry of HIV were tested in clinical trials, including surfactants, such as nonoxynol–9 and C31G that disrupt the viral lipid envelope and non-specific polyanions, such as carrageenan, cellulose sulfate, as well as a sulfonated naphthalene derivative (PRO2000), presumably mimicking heparan sulfate (HS) and blocking virus-cell interactions. ..."}, "[4]": {"conditions": "HEC gel formulated, applied at 0.5 to 2 mM"}}, "note": "Where two headings read alike, the source gives them in different places.", "data": [{"molecule": "COc1ccnc2[nH]cc(C(=O)C(=O)N3CCN(C(=O)c4ccccc4)C[C@H]3C)c12", "note": "[BMS-378806]", "values": [{"measurement": "IC50", "setting": "SHIV162P3 [1]", "result": 5.5, "unit": "nM"}, {"measurement": "protection", "setting": "SHIV; administered at 5.5 mM", "result": 75, "unit": "%"}]}, {"molecule": "Cc1cc(C)c(Nc2ccnc(Nc3ccc(C#N)cc3)n2)c(C)c1", "note": "[TMC120 Dapivirine, Dapivirine]", "values": [{"measurement": "IC50", "setting": "HIV-1 VI820", "result": 2, "unit": "nM"}, {"measurement": "IC50", "setting": "HIV-1 Bal", "result": 1.7, "unit": "nM"}, {"measurement": "IC50", "setting": "HIV-1 IIIB", "result": 0.84, "unit": "nM"}, {"measurement": "IC50", "setting": "HIV-1 MN", "result": 1.5, "unit": "nM"}, {"measurement": "IC50", "setting": "HIV-1 SF162", "result": 1.3, "unit": "nM"}, {"measurement": "IC50", "setting": "SHIV162P3 [2]", "result": "> 1000", "unit": "nM"}, {"measurement": "IC50", "setting": "HIV-1 Ca10-3 (CRF01)", "result": 1.2, "unit": "nM"}, {"measurement": "IC50", "setting": "HIV-1 MP568 (CRF02)", "result": 1.1, "unit": "nM"}, {"measurement": "IC50", "setting": "HIV-1 VI1888 (CRF01)", "result": 2.1, "unit": "nM"}, {"measurement": "IC50", "setting": "HIV-1 VI824", "result": 1.2, "unit": "nM"}, {"measurement": "IC50", "setting": "HIV-1 p246F10", "result": 1.4, "unit": "nM"}, {"measurement": "IC50", "setting": "HIV-1 pREJO.c/2864 cl2", "result": 1.6, "unit": "nM"}, {"measurement": "IC50", "setting": "HIV-1 pTHRO.c/2626", "result": 1.9, "unit": "nM"}, {"measurement": "IC50", "setting": "HIV-1 pWITO.c/2474", "result": 1.1, "unit": "nM"}, {"measurement": "IC50", "setting": "HIV-1 pZM247Fv2", "result": 2.3, "unit": "nM"}, {"measurement": "IC50", "setting": "HIV-1 VI829", "result": 1.3, "unit": "nM"}, {"measurement": "CC50", "setting": "TZM-bl cells", "result": 2524, "unit": "nM"}, {"measurement": "IC50", "setting": "[3]", "result": "1 to 2", "unit": "nM"}, {"measurement": "reduction in HIV-1 acquisition", "setting": "HIV-1", "result": "up to 40%"}]}, {"molecule": "C[C@H](Cn1cnc2c(N)ncnc21)OCP(=O)(O)O", "note": "[Tenofovir]", "values": [{"measurement": "reduction in HIV-1 acquisition", "setting": "HIV-1", "result": "up to 40%"}]}, {"molecule": "maraviroc", "values": [{"measurement": "protection", "setting": "SHIV; 500 μM intravaginally", "result": 50, "unit": "%"}, {"measurement": "macaques remaining uninfected", "setting": "SHIV; 6 mM intravaginally", "result": "6 of 7"}]}, {"molecule": "cyanovirin: HEC gel formulated cyanovirin (protein, UniProt P81180 1-101, looked up, HEC gel formulation) Cyanovirin-N: LGKFSQTCYNSAIQGSVLTSTCERTNGGYNTSSIDLNSVIENVDGSLKWQPSNFIETCRNTQLAGSSELAAECKTRAQQFVSTKINLDDHIANIDGTLKYE", "values": [{"measurement": "animals protected", "setting": "SHIV; [4]", "result": "5 out of 6"}, {"measurement": "protection", "setting": "SHIV; [4]", "result": 83, "unit": "%"}]}]}
